Data as given in ChEMBL document CHEMBL1150213, “Protein-tyrosine kinase inhibition: mechanism-based discovery of antitumor agents” (J Nat Prod, 1992).
pIC50: −log10 of the molar value.

Biological target: Tyrosine-protein kinase Lck (Homo sapiens, UniProt P06239)
Sequence (P06239 whole entry): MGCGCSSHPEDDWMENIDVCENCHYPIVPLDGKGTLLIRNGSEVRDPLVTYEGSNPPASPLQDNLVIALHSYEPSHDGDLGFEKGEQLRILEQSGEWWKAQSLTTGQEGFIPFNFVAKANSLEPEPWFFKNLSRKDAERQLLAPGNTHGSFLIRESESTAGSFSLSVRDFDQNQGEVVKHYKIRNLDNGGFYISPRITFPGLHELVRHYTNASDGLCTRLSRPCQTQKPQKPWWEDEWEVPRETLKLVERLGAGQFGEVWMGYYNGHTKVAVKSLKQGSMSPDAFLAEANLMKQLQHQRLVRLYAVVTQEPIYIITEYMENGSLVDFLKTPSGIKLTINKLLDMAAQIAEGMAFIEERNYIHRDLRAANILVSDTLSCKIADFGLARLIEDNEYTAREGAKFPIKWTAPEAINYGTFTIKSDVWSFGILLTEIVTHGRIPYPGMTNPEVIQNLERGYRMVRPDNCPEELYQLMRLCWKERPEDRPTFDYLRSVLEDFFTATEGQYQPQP

pIC50 | SMILES
3.79 | COc1cc(-c2cc(=O)c3ccc(O)cc3o2)cc(OC)c1O[Si](C)(C)C(C)(C)C
5.15 | Nc1ccc(-c2cc(=O)c3c(O)c(O)ccc3o2)cc1
< 2.65 | COc1cc(-c2cc(=O)c3ccc(OC(C)=O)cc3o2)cc(OC)c1O
4.71 | O=c1cc(-c2ccccc2)oc2cc(O)cc(O)c12 [CHRYSIN]
< 2.45 | O=C1c2ccccc2C(=O)c2c(O)cccc21 [1-HYDROXYANTHRAQUINONE]

Biological target: Epidermal growth factor receptor (Homo sapiens, UniProt P00533)
Sequence (P00533 whole entry): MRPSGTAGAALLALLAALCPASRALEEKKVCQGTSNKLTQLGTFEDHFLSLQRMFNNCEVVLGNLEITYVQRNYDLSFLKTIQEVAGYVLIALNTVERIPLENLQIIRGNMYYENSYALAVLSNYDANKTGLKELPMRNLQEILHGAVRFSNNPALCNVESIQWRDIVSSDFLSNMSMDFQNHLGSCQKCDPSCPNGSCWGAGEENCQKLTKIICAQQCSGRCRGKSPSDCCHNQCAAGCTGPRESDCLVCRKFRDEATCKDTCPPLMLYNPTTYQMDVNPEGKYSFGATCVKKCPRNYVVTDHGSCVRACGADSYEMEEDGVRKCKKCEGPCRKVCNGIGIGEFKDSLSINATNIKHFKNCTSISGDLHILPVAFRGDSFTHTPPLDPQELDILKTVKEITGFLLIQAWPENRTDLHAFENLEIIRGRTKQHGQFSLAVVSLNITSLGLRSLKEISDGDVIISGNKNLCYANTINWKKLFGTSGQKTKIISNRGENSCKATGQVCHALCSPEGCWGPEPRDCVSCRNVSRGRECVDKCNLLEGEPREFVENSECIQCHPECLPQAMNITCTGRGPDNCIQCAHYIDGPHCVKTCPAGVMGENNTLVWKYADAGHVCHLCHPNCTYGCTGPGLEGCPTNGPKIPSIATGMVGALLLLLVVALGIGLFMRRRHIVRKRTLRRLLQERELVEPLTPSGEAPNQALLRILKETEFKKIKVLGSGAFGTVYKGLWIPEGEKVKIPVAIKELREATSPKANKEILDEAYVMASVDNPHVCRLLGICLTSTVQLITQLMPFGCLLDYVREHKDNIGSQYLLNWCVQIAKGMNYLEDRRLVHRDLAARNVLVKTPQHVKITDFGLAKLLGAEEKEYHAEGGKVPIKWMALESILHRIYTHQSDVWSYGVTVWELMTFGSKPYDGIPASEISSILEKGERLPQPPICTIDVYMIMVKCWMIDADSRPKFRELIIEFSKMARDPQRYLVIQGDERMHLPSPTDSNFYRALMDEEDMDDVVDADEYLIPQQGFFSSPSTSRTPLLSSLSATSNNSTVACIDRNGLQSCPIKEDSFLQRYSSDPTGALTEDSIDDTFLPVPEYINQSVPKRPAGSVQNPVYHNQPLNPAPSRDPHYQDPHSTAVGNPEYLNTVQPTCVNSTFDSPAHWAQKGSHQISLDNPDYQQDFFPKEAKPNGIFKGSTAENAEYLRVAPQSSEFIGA
Description: Inhibition of EGFR in human A431 cells

pIC50 | SMILES
3.05 | COc1cc(C(C#N)=C(C#N)C#N)cc(OC)c1O
3.00 | O=C(O)/C=C/c1ccc(O)c(O)c1 [CAFFEIC ACID]
6.28 | O=C(O)c1ccc(O)c(N(Cc2ccccc2O)Cc2cc(O)ccc2O)c1
5.00 | N#C/C(=C/c1ccc(O)c(O)c1)C(=O)Nc1ccccc1Cl
5.86 | O=C(O)c1cc(N(Cc2ccccc2O)Cc2ccccc2O)ccc1O [LAVENDUSTIN B]
7.00 | N#C/C(=C/c1ccc(O)c(O)c1)C(=O)NCCCCc1ccccc1
5.70 | N#C/C(=C\c1ccc(O)c(O)c1)C(=O)c1ccccc1Cl
6.00 | N#C/C(=C\c1ccc(O)c(O)c1)C(=O)c1ccccc1
4.98 | O=c1c(O)c(-c2ccc(O)cc2)oc2cc(O)cc(O)c12 [KAEMPFEROL]
5.00 | N#CC(C#N)=C(C#N)c1ccc(O)c(O)c1
3.40 | N#CC(C#N)=C(C#N)c1cccc(O)c1
3.30 | N#CC(C#N)=C(O)c1ccc(O)cc1
3.98 | COc1ccc(-c2coc3cc(O)cc(O)c3c2=O)cc1 [BIOCHANIN]
4.52 | N#C/C(=C\c1ccc(O)c(O)c1)C(=O)O
4.70 | N#C/C(=C\c1cc(O)ccc1O)C(=O)O
5.00 | N#CC(C#N)=C(O)c1cc(O)c(O)c(O)c1
5.52 | N#CC(C#N)=C(N)/C(C#N)=C/c1ccc(O)c(O)c1
6.40 | N#C/C(=C\c1ccc(O)c(O)c1)C(=O)c1ccc(O)c(O)c1

pIC50 | SMILES
5.52 | N#CC(C#N)=C(C#N)c1cc(O)c(O)c(O)c1
6.48 | COc1c(O)cc(O)c2c(=O)c(-c3ccc(O)cc3)coc12 [PSI-TECTORIGENIN]
4.14 | O=C(O)c1ccc(O)cc1 [PARABEN]
6.05 | Cc1ccc(C(=O)/C(C#N)=C/c2ccc(O)c(O)c2)cc1
6.22 | N#C/C(=C\c1ccc(O)c(O)c1)C(=O)c1ccc(F)cc1
< 3.64 | O=c1c(-c2ccc(O)cc2)coc2cc(O[C@@H]3O[C@H](CO)[C@@H](O)[C@H](O)[C@H]3O)cc(O)c12 [GENISTIN]
5.22 | COc1cc(C(C#N)=C(C#N)C#N)cc(O)c1O
5.70 | N#C/C(=C\c1ccc(O)c(O)c1)C(=O)c1ccc([N+](=O)[O-])cc1
3.22 | N#CC(C#N)=C(C#N)c1ccc(O)cc1
3.85 | COc1ccc(-c2cc(=O)c3c(O)cc(O)cc3o2)cc1 [ACACETIN]
7.60 | O=C(O)c1cc(N(Cc2cc(O)ccc2O)Cc2cc(O)ccc2O)ccc1O
< 3.41 | O=c1c(-c2ccc(O)cc2)coc2cc(O)ccc12 [DAIDZEIN]
5.00 | N#CC(C#N)=C(C#N)c1cc(O)cc(O)c1
5.70 | N#C/C(=C/c1ccc(O)c(O)c1)C(=O)NC1CCCCC1
7.98 | O=C(O)c1cc(N(Cc2ccccc2O)Cc2cc(O)ccc2O)ccc1O [LAVENDUSTIN A]
3.65 | O=c1cc(-c2ccccc2)oc2ccccc12 [FLAVONE]
3.22 | N#CC(C#N)=C(C#N)c1ccc(C=O)cc1
4.85 | COc1cc(O)c2c(=O)c(-c3ccc(O)cc3)coc2c1 [PRUNETIN]

SMILES | pIC50
COc1cc(/C=C/[N+](=O)[O-])ccc1O | 5.10
O=P(O)(O)C(O)c1ccc2ccccc2c1 (stereo not drawn) | 3.70
C/C(=C\c1ccc(O)c(O)c1)[N+](=O)[O-] | 5.05
N#C/C(=C\c1ccc(O)c(O)c1)C(=O)NCCc1ccccc1 | 6.05
N#CC(C#N)=C(N)/C(C#N)=C/c1ccc(O)cc1 | 7.00
N#C/C(=C\c1ccc(O)cc1)C(=O)O [alpha-CYANO-4-HYDROXYCINNAMIC ACID] | 3.70
O=[N+]([O-])/C=C/c1ccc(O)c(O)c1 | 5.05
